# From ChEMBL document CHEMBL1201862, “PubChem BioAssay data set” (2004)
#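 Compound exposure: 48 hours, 5 concentrations, 96-well plates. Abbreviation: GI50, concentration required for 50% inhibition of growth.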 The source made the active and inactive calls. Rule as the data show it: active = GI50 up to about 1.1 µM and inactive = higher.
# Tests used:
# Assay in all cases: growth of human tumour cells (NCI), 48 h
# DLD-1 = system: DLD-1
# HOP-18 = system: HOP-18
# XF498 = system: XF498
# M19-MEL = system: M19-MEL
# DMS-114 = system: DMS-114
# KM-20L2 = system: KM-20L2
# DMS-273 = system: DMS-273
# SNB-78 = system: SNB-78
# RXF 631 = system: RXF 631
SMILES,GI50 (DLD-1),GI50 (HOP-18),GI50 (XF498),GI50 (M19-MEL),GI50 (DMS-114),GI50 (KM-20L2),GI50 (DMS-273),GI50 (SNB-78),GI50 (RXF 631)
CCOC(=O)C1=C(C)N(NC(=O)Nc2ccccc2)C(=O)C1=P(c1ccccc1)(c1ccccc1)c1ccccc1,33.6 µM (inactive),58.1 µM (inactive),31.8 µM (inactive),32.6 µM (inactive),32.2 µM (inactive),40.6 µM (inactive),40.6 µM (inactive),,
CNC(=S)/N=C(\N)N(C)C,> 100 µM (inactive),> 100 µM (inactive),> 100 µM (inactive),> 100 µM (inactive),> 100 µM (inactive),> 100 µM (inactive),> 100 µM (inactive),> 100 µM (inactive),
C/C(=N\NC(N)=S)c1ccc(/C(C)=N/NC(N)=S)cc1,> 100 µM (inactive),> 100 µM (inactive),> 100 µM (inactive),> 100 µM (inactive),> 100 µM (inactive),> 100 µM (inactive),,,> 100 µM (inactive)
Cc1c(C)c(CC(=O)N2CC2)c(C)c(C)c1CC(=O)N1CC1,17.5 µM (inactive),28.4 µM (inactive),,12.9 µM (inactive),11.5 µM (inactive),17.3 µM (inactive),2.18 µM (inactive),13.7 µM (inactive),
C/C=C/C[C@@H](C)[C@@H](O)[C@H]1C(=O)N[C@@H](CC)C(=O)N(C)CC(=O)N(C)[C@@H](CC(C)C)C(=O)N[C@@H](C(C)C)C(=O)N(C)[C@@H](CC(C)C)C(=O)N[C@@H](C)C(=O)N[C@H](C)C(=O)N(C)[C@@H](CC(C)C)C(=O)N(C)[C@@H](CC(C)C)C(=O)N(C)[C@@H](C(C)C)C(=O)N1C [CYCLOSPORINE],5.32 µM (inactive),11.1 µM (inactive),3.96 µM (inactive),2.37 µM (inactive),3.7 µM (inactive),2.97 µM (inactive),4.7 µM (inactive),4.98 µM (inactive),1.98 µM (inactive)
c1ccc(-c2csc3ncn4cnnc4c23)cc1,82.2 µM (inactive),52 µM (inactive),,> 100 µM (inactive),57.9 µM (inactive),> 100 µM (inactive),72.8 µM (inactive),> 100 µM (inactive),95.7 µM (inactive)
Oc1c(-c2ccccc2)nc2ccccn12,> 100 µM (inactive),,> 100 µM (inactive),> 100 µM (inactive),> 100 µM (inactive),> 100 µM (inactive),> 100 µM (inactive),> 100 µM (inactive),
O=C(/C=C/c1ccc(OCC(=O)N2CCN(c3ccccc3)CC2)cc1)c1ccccc1,7.31 µM (inactive),> 50 µM (inactive),,11.3 µM (inactive),,8.95 µM (inactive),2.99 µM (inactive),> 44.5 µM (inactive),
CCOC(=O)[C@@]1(C)C=C2O[C@@H]3OC4(CCCCC4)O[C@@H]3C2=C2C(O)=CC=C(O)[C@]21C(=O)OC,> 68.1 µM (inactive),> 68.1 µM (inactive),> 68.1 µM (inactive),> 68.1 µM (inactive),> 68.1 µM (inactive),> 68.1 µM (inactive),> 68.1 µM (inactive),> 68.1 µM (inactive),> 68.1 µM (inactive)
CC(C)C(=O)N1Cc2cc(Cl)cc(Cl)c2OC(=O)c2ccccc21,29.9 µM (inactive),25.6 µM (inactive),,,30.1 µM (inactive),23.7 µM (inactive),38.7 µM (inactive),67.9 µM (inactive),40.3 µM (inactive)
COc1c(OC(C)=O)c(OC(C)=O)cc2c1-c1ccc(SC)c(=O)cc1C(NC(C)=O)CC2 (stereo not given),0.908 µM (active),> 100 µM (inactive),1.04 µM (active),0.57 µM (active),,0.7 µM (active),0.895 µM (active),0.287 µM (active),
CCCCCCCCCC(=O)CC(=O)c1c(O)cccc1O,39.5 µM (inactive),25.4 µM (inactive),15.3 µM (inactive),38.5 µM (inactive),30.1 µM (inactive),33.8 µM (inactive),20.8 µM (inactive),40 µM (inactive),
